Experimental data reported in PubChem BioAssay (NCI).
Several values for one entry are separate records, joined by “and”; a condition that tells them apart may be missing. Equal values may be shown once.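 Tested at 5 concentrations; 48 h exposure; 96-well plates; endpoints linearly interpolated, else capped at highest concentration. Abbreviation: GI50, concentration required for 50% inhibition of growth. TGI: total growth inhibition.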

Columns and labels:
Assay in all cases: inhibition of tumour cell growth, NCI panel, 48 h
LOX IMVI melanoma = system: LOX IMVI melanoma
HCT-15 colon = system: HCT-15 colon
EKVX NSCLC = system: EKVX NSCLC
HOP-92 NSCLC = system: HOP-92 NSCLC
786-0 renal = system: 786-0 renal
HCT-116 colon = system: HCT-116 colon
SK-OV-3 ovarian = system: SK-OV-3 ovarian
SW-620 colon = system: SW-620 colon
NCI-H460 lung = system: NCI-H460 lung
SK-MEL-28 melanoma = system: SK-MEL-28 melanoma

Row | Compound | GI50 (LOX IMVI melanoma) | TGI (LOX IMVI melanoma) | GI50 (HCT-15 colon) | TGI (HCT-15 colon) | GI50 (EKVX NSCLC) | TGI (EKVX NSCLC) | GI50 (HOP-92 NSCLC) | TGI (HOP-92 NSCLC) | GI50 (786-0 renal) | TGI (786-0 renal) | GI50 (HCT-116 colon) | TGI (HCT-116 colon) | GI50 (SK-OV-3 ovarian) | TGI (SK-OV-3 ovarian) | GI50 (SW-620 colon) | TGI (SW-620 colon) | GI50 (NCI-H460 lung) | TGI (NCI-H460 lung) | GI50 (SK-MEL-28 melanoma) | TGI (SK-MEL-28 melanoma)
1 | C=CC(=O)Nc1ccc(Nc2nccc(-c3ccc(N4CCCC4)c(C#N)c3)n2)cc1 | > 25 µM | > 25 µM | 1.17 µM | 10.3 µM | > 25 µM | > 25 µM | > 25 µM | > 25 µM | 0.663 µM | 3.87 µM | 6.03 µM | > 25 µM | > 25 µM | > 25 µM | 21.7 µM | > 25 µM | 4.61 µM | > 25 µM | 4 µM | 13.1 µM
2 | COc1c2c(c3c(c1C1OC(C)[C@@H](C)O1)CC(C)(C)O3)C(=O)c1ccccc1C2=O (stereo partly drawn) |  | 28.6 µM |  | > 100 µM |  | > 100 µM |  | 89.7 µM |  | > 100 µM |  | > 100 µM |  | > 100 µM |  | 63.6 µM |  | > 100 µM |  | > 100 µM
3 | CC(C)[C@](O)(c1ccc2cc(OC(F)F)c(OC(F)F)cc2c1)c1cn[nH]n1 | 15.7 µM and 14.8 µM | 29.1 µM and 28.9 µM | 13.9 µM and 14.4 µM | 31.5 µM and 31.8 µM | 14 µM and 13.6 µM | 44.8 µM and 39.9 µM | 13.6 µM and 13.5 µM | 32.2 µM and 29.3 µM | 17.8 µM and 16.9 µM | 39.4 µM and 39.9 µM | 15.2 µM and 15 µM | 31.3 µM and 30.2 µM | 14.6 µM and 17.7 µM | 38.6 µM and 45.5 µM | 21 µM and 18.5 µM | 44.9 µM and 38.5 µM | 18.9 µM and 17.7 µM | 34.9 µM and 34.3 µM | 18.5 µM and 19.6 µM | 36.9 µM and 40.8 µM
4 | c1ccc(SC2(Sc3ccccc3)CCCC2)cc1 |  | > 100 µM |  | > 100 µM |  | > 100 µM |  | > 100 µM |  | > 100 µM |  | > 100 µM |  | > 100 µM |  | > 100 µM |  | > 100 µM |  | > 100 µM
5 | COc1cccc(C2CC(c3cc(OC)c(OC)c(OC)c3)=NN2)c1 (stereo not drawn) | 9.49 µM | 21.8 µM | 10.1 µM | 23.8 µM | 14.5 µM | 46.1 µM | 11.9 µM | 39.2 µM | 13.7 µM | 56.4 µM | 5.31 µM | 19 µM | 24.1 µM | 72.2 µM | 3.05 µM | 11.5 µM | 13.3 µM | 35.4 µM | 17.8 µM | > 100 µM
6 | Cc1ccc(C(=O)O/N=C2/CCCC/C2=C\c2ccccc2)cc1 |  | 44.2 µM |  | > 100 µM |  | > 100 µM |  | > 100 µM |  | > 100 µM |  | 32.7 µM |  | > 100 µM |  | > 100 µM |  | > 100 µM |  | 65.3 µM
7 | CC(C)=CCN=C(N)N |  | > 100 µM |  | > 100 µM |  | > 100 µM |  | > 100 µM |  | > 100 µM |  | > 100 µM |  | > 100 µM |  | > 100 µM |  | > 100 µM |  | > 100 µM
8 | CCCN(CCC)CCCNCc1cc(I)cc(C)c1O | 14.6 µM | 27.7 µM | 15.3 µM | 29.7 µM | 15.8 µM | 33.7 µM | 5.04 µM | 18.6 µM | 13.6 µM | 26.4 µM | 7.9 µM | 20.5 µM | 16.3 µM | 31 µM | 14.3 µM | 27.4 µM | 13.3 µM | 26 µM | 15.4 µM | 28.9 µM
9 | CO[C@H](C(=O)[C@@H](O)[C@@H](C)O)[C@@H]1Cc2cc3cc(O[C@H]4C[C@@H](O[C@H]5C[C@@H](O)[C@H](O)C(C)O5)[C@H](O)C(C)O4)c(C)c(O)c3c(O)c2C(=O)[C@H]1O[C@H]1C[C@@H](O[C@H]2C[C@@H](O[C@H]3C[C@@H](OC)[C@H](O)C(C)O3)[C@@H](O)C(C)O2)C(O)(O)C(C)O1 (stereo partly drawn) | 0.0745 µM | 3.68 µM | 2.65 µM | > 25 µM | 0.318 µM | > 25 µM | 0.103 µM | > 6.49 µM | 0.164 µM | > 25 µM | 0.035 µM | > 25 µM | 0.113 µM | > 25 µM | 0.164 µM | > 25 µM | 0.033 µM | > 25 µM | 0.0439 µM | 1.11 µM
10 | O=C(O)CSCc1cccc2ccccc12 |  | > 100 µM |  | > 100 µM |  | > 100 µM |  | > 100 µM |  | > 100 µM |  | > 100 µM |  | > 100 µM |  | > 100 µM |  | > 100 µM |  | > 100 µM
11 | CCC[CH2][Sn]([CH2]CCC)([O]C(=O)c1c(F)cccc1F)[O]C(=O)c1c(F)cccc1F | 0.353 µM | 1.41 µM | 1.09 µM | 2.28 µM | 1.04 µM | 2.22 µM | 0.44 µM | 1.81 µM | 0.768 µM | 2 µM | 1.02 µM | 2.25 µM | 1.82 µM | 3.24 µM | 0.32 µM | 1.23 µM | 1.54 µM | 2.9 µM | 0.599 µM | 1.87 µM
12 | CC1=NN(C(=O)c2ccccc2O)C(=O)/C1=C/c1ccc([N+](=O)[O-])cc1 | 0.854 µM | > 40.9 µM | 0.932 µM |  | 2.68 µM | > 100 µM | 0.609 µM | > 100 µM | 0.774 µM | > 100 µM | 0.328 µM |  | 1.6 µM | > 100 µM | 3.15 µM | > 100 µM | 0.414 µM | > 100 µM | 4.7 µM | > 100 µM
13 | Cc1nc2ccc(CN(C)c3ccc(C(=O)N[C@@H](CCC(=O)O)C(=O)O)s3)cc2c(=O)[nH]1 |  | > 100 µM |  | > 100 µM |  | > 100 µM |  | > 100 µM |  | > 100 µM |  | > 100 µM |  | > 100 µM |  | > 100 µM |  | > 100 µM |  | > 100 µM
14 | COc1cc(/C(Cl)=C/C=C/C(=O)c2c(C)[n+]([O-])c3ccc(Cl)cc3[n+]2[O-])cc(OC)c1OC | 1.77 µM | 7.54 µM | 7.35 µM | > 50 µM | 14.2 µM | > 50 µM | 4.7 µM | 28.1 µM | 4.62 µM | > 50 µM | 2.12 µM | 8.98 µM | 7.4 µM | 31.5 µM | 2.24 µM | 9.78 µM | 11.5 µM | > 50 µM | 6.85 µM | 49.4 µM
15 | Cc1cccc(C(=O)c2cccc3ccccc23)c1C(=O)O |  | > 100 µM |  | > 100 µM |  | > 100 µM |  | > 100 µM |  | > 100 µM |  | > 100 µM |  | > 100 µM |  | > 100 µM |  | > 100 µM |  | > 100 µM
16 | O=C1OC(=O)c2c1c(-c1ccccc1)cn2-c1ccc(Cl)cc1 |  | > 100 µM |  | > 100 µM |  | > 100 µM |  | > 100 µM |  | > 100 µM |  | > 100 µM |  | > 100 µM |  | > 100 µM |  | > 100 µM |  | > 100 µM
17 | Cc1ccccc1NC(=S)Nc1ccccn1 | > 100 µM | > 100 µM | > 100 µM | > 100 µM | 49 µM | > 100 µM | 10.6 µM | > 100 µM | > 100 µM | > 100 µM | > 100 µM | > 100 µM | > 100 µM | > 100 µM | > 100 µM | > 100 µM | > 100 µM | > 100 µM | > 100 µM | > 100 µM
18 | Nc1ccn(C2OC(CO)C(O)C2F)c(=O)n1 (stereo not drawn) | > 5000 µM | > 5000 µM | > 5000 µM | > 5000 µM | > 5000 µM | > 5000 µM | > 5000 µM | > 5000 µM | > 5000 µM | > 5000 µM | > 5000 µM | > 5000 µM | > 5000 µM | > 5000 µM | > 5000 µM | > 5000 µM | 810 µM and 773 µM | > 5000 µM | > 5000 µM | > 5000 µM
19 | C=C(Cn1c(=O)c2ccccc2c2ccccc21)c1ccc(C(=O)Nc2ccccc2N)cc1 | 7.77 µM | > 100 µM | 33.5 µM | > 100 µM | > 59.8 µM | > 100 µM | 0.689 µM | 26.1 µM | 5.95 µM | > 100 µM | 15.2 µM | > 100 µM | 24.3 µM | > 100 µM | 58.7 µM | > 100 µM | 21.3 µM | > 100 µM | > 37.8 µM | > 100 µM
20 | N#C/C(=C\c1ccccc1O)C(N)=O |  | > 100 µM |  | > 100 µM |  | > 100 µM |  | > 100 µM |  | > 100 µM |  | > 100 µM |  | > 100 µM |  | > 100 µM |  | > 100 µM |  | > 100 µM
21 | C=C1C(=O)O[C@H]2[C@H]1CC/C(CNC(=O)/C=C/c1ccc(Br)cc1)=C\CC[C@@]1(C)O[C@@H]21 | 0.594 µM | 1.86 µM | 0.519 µM | 1.88 µM | 1.46 µM | 2.91 µM | 0.659 µM | 2.26 µM | 1.05 µM | 2.45 µM | 0.667 µM | 1.95 µM | 3.89 µM | 12.5 µM | 0.444 µM | 1.77 µM | 1.63 µM | 3.3 µM | 1.34 µM | 2.7 µM
22 | COc1ccc2c(c1)C(=O)c1c-2n(CCCN)c(=O)c2ccccc12 | 0.0102 µM | 0.0786 µM | 0.0179 µM | 0.265 µM | 0.196 µM | 1.83 µM | 0.181 µM | 1.43 µM | 0.0196 µM | 0.31 µM | < 0.0115 µM | 0.148 µM | < 0.0202 µM | 0.0652 µM | < 0.01 µM | 1.14 µM | < 0.01 µM | 0.0402 µM | 0.459 µM | 1.89 µM
